SMILES strings stand for the structures. pIC50: −log10 of the molar value.

The assay deals with Prothrombin (Homo sapiens, UniProt P00734). The experiment in a line: Inhibition of thrombin.
Broadly, the pIC50 is −log10 of the IC50, conventionally taken in molar units. High values mean a low IC50, low ones a high IC50. With `CC(C)C[C@@H](NC(=O)[C@H](O)Cc1ccccc1)C(=O)N1[C@H](C(=O)NCCC2=CCN(C(=N)N)C2)C[C@@H]2CCCC[C@@H]21`, the pIC50 was 6.92. On to `CC(C)C[C@@H](NC(=O)[C@H](O)Cc1ccccc1)C(=O)N1[C@H](C(=O)NCCCCN=C(N)N)C[C@@H]2CC[C@@H](O)C[C@@H]21`, for which the pIC50 is 5.25.

In turn, `CC(C)C[C@@H](NC(=O)[C@H](O)Cc1ccccc1)C(=O)N1[C@H](C(=O)NCCCCN=C(N)N)C[C@@H]2CCCC[C@@H]21` showed a pIC50 of 5.82.

Consider `CC(C)C[C@@H](NC(=O)[C@H](O)Cc1ccccc1)C(=O)N1[C@H](C(=O)NCCC2=CCN(C(=N)N)C2)C[C@@H]2CC[C@@H](O)C[C@@H]21`, for which the pIC50 was 6.66.

As to `CC[C@@H](C)[C@@H](NC(=O)[C@H](O)Cc1ccccc1)C(=O)N1CCC[C@H]1C(=O)NCc1ccc(C(=N)N)cc1`, the negative-log IC50 (pIC50) is 8.15. As for `CC(C)[C@H](Cl)[C@@H](NC(=O)[C@H](O)Cc1ccccc1)C(=O)N1[C@H](C(=O)NCc2ccc(C(=N)N)cc2)C[C@@H]2CCCC[C@@H]21`, the figure is 8.80; as for `CC[C@H](C)[C@@H](N)C(=O)N1[C@H](C(=O)NCc2ccc(C(=N)N)cc2)C[C@@H]2CCCC[C@@H]21`, 7.00; as for `CC[C@H](C)[C@@H](NC(=O)[C@H](O)Cc1ccccc1)C(=O)N1[C@H](C(=O)NCc2ccc(C(=N)N)cc2)C[C@@H]2CCCC[C@@H]21`, 8.48.

Turning to `N=C(N)c1ccc(CNC(=O)[C@@H]2C[C@@H]3CCCC[C@@H]3N2C(=O)C(NC(=O)[C@H](O)Cc2ccccc2)C2CCCCC2)cc1` (stereo partly specified), the pIC50 is 8.47. In the case of `CC(C)C[C@@H](NC(=O)[C@H](O)Cc1ccccc1)C(=O)N1[C@H](C(=O)NCc2ccc(C(=N)N)cc2)C[C@@H]2CCCC[C@@H]21`, the pIC50 is 7.01. As for `CC(C)[C@H](Cl)[C@@H](NC(=O)[C@H](O)Cc1ccccc1)C(=O)N1[C@H](C(=O)NCCCCN=C(N)N)C[C@@H]2CC[C@@H](O)C[C@@H]21`, the figure is 6.51; as for `CC[C@H](C)[C@@H](NC(=O)CCc1ccccc1)C(=O)N1[C@H](C(=O)NCc2ccc(C(=N)N)cc2)C[C@@H]2CCCC[C@@H]21`, 6.48.

The molecule `CO[C@H](CO)C(=O)N[C@@H](C(=O)N1[C@H](C(=O)NCCC2=CCN(C(=N)N)C2)C[C@@H]2C[C@H](O)[C@@H](O)C[C@@H]21)[C@@H](Cl)C(C)C` had a pIC50 of 7.96. Under `CC[C@H](C)[C@@H](NC(C)=O)C(=O)N1[C@H](C(=O)NCc2ccc(C(=N)N)cc2)C[C@@H]2CCCC[C@@H]21` stands 6.10. As to `CC[C@H](C)C(NC(=O)OC(C)(C)C)C(=O)N1[C@H](C(=O)NCc2ccc(C(=N)N)cc2)C[C@@H]2CCCC[C@@H]21` (single isomer, unassigned), the pIC50 was 6.77.

For the molecule `CC[C@H](C)C(NC(=O)[C@@H](C)O)C(=O)N1[C@H](C(=O)NCc2ccc(C(=N)N)cc2)C[C@@H]2CCCC[C@@H]21` (single isomer, unassigned), the pIC50 is 7.28.

The record behind these values is ChEMBL document CHEMBL1139932, “Structure-based organic synthesis of unnatural aeruginosin hybrids as potent inhibitors of thrombin” (Bioorg Med Chem Lett, 2007).
